Read-outs that look alike come from different tables or passages of the source.
Assays:
TTR [1] = target: T1, TTR (Homo sapiens, UniProt P02766); experiment: Time course (kinetics) of fibril formation, turbidity at 340 nm for 3 h; assay type: biochemical; settings: TTR 7.2 μM, inhibitor 21.6 μM, 37° C., pH 4.4, 3 h
T1 construct: made in house
Procedure: Time Course of Fibril Formation. The kinetics of inhibition was studied by incubating […] TTR with […] of different inhibitors in 100 µl of 5 mM phosphate buffer pH 7.2 for 30 min in a 96 microwell plate. […] of 0.2 M sodium acetate buffer pH 4.4 containing 1 mM EDTA and 100 mM KCl was added. The difference in turbidity was assessed by measuring the change in absorbance at 340 nm on Tecan GEnios microplate reader using Magellan software. For kinetics, parameters were set for 30 cycles at 37° C. at the interval of 5 min each and 2 min orbital shaking (low speed) between cycles and 10 sec shaking (normal speed) before measurement. All experiments were performed in triplicates. Change in absorbance at 340 nm was plotted against time in the presence and absence of inhibitors initial rate of fibril formation was calculated from the slope by linear fitting of the data.
All experiments were performed three times in triplicates. Change in absorbance (mean of three different experiments) at 340 nm was plotted against time in the presence and absence of inhibitors. Initial rate of fibril form action was calculated from the value of the slope by linear fitting of the change in absorbance at 340 nm as a function of time.

TTR tetramer = target: T2, TTR tetramer (Homo sapiens, UniProt P02766); experiment: Urea denaturation (tetramer dissociation, tryptophan fluorescence); assay type: biochemical; settings: TTR 1.8 μM, inhibitor 5.4 μM (1:3), 6 M urea, 25° C., up to […]
T2 construct: made in house

WT-TTR = target: T3, WT-TTR (Homo sapiens, UniProt P02766); experiment: Stagnant acid-mediated TTR aggregation (fibril formation) assay, turbidity at 340 nm; assay type: biochemical; settings: for remaining activity at 7.2 µM / remaining activity at 21.6 µM / remaining activity at 50 µM / remaining activity at 100 µM: 72 h; for remaining activity at 50 µM: read-out: % FF at 50 μM; for inhibition of TTR fibrillization: inhibitor 21.6 μM; for remaining activity at 100 µM / inhibition at 100 µM: pH 4.4, compound 100 μM; for remaining activity at 100 µM: read-out: % FF; for inhibition at 100 µM: read-out: % Inhibition
T3 construct: made in house
Procedure: Stagnant Acid-Mediated TTR Aggregation Assay.
After 1 h, the samples were diluted with 0.5 ml of 200 mM sodium acetate buffer containing 100 mM KCl and 1 mM EDTA. Samples after mild vortexing were incubated at 37° C. for the desired amount of time without stirring to evaluate the efficacy of the inhibitors. The extent of aggregation was probed by turbidity measurements at 340 nm using Tecan GENios microplate reader. […] The extent of TTR fibril formation in the absence of inhibitor was defined to be 100%. […] All experiments were done in triplicate. […] The IC50 was determined by plotting mean of % inhibition vs log and fitted to sigmoid equation:
(§1) The experiments were conducted at 25° C. After 1 h, the samples were diluted with 0.5 mL of 200 mM sodium acetate buffer pH 4.4 containing 100 mM KCl and 1 mM EDTA, vortexed, and incubated at 37° C. for 72 h. […] The stoichiometry of the binding of the inhibitors was determined by HPLC as described by Green et al., N. S. Palaninathan, S, L, Sacchettini, J. e. […] Dissociation constant of binding of these compounds to TTR was determined by fluorescence titration, and data were fitted into the Adair equation for two bind mg.

TTR [2] = target: T1, TTR; experiment: Dissociation constant by fluorescence titration (Adair equation, two sites); assay type: binding
Procedure: as §1
Small aliquots of 1 mM ligands solutions were successively added to the […] in 100 mM sodium acetate buffer pH 4.4 at […] under constant stirring. After each addition sample was left for 2 min. […] Readings were corrected for buffer blank, dilution and inner filter effect. The inner filter effect was corrected by using the following equation,
From the titration data the dissociation constant was determined by fitting data in following Adair equation for two binding sites-

TTR fibers = target: T4, TTR fibers (Homo sapiens, UniProt P02766); experiment: Fibril disruption assay; assay type: biochemical; settings: three doses (7.2 μM each), 15 days, Th-T fluorescence
T4 construct: made in house
Procedure: Fibril Disruption Assay. […] The disruption was followed for 7 days by turbidity measurements at 340 nm and Th-T fluorescence. A second dose of the inhibitor (7.2 μM) was added after 24 h of incubation, and samples were incubated and monitored further for 5-6 days. After 15-20 days of incubation, samples were examined by transmission electron microscopy (TEM). All experiments were done thrice in triplicates each time.

[3] = pH 4.4; read-out: Dissociation Constant Kd1
[4] = 50% reduction in fibril formation, TTR 7.2 μM, pH 4.4, read-out: IC50 ± SE
[5] = biphenyl ether 50 μM, WT-TTR 7.2 μM
[6] = pH 4.4, TTR 7.2 μM, inhibitor 7.2 μM (1:1), pH 4.4, 37° C., no inhibitor = 100%, read-out: % FF 1:1
[7] = pH 4.4, TTR 7.2 μM, inhibitor 21.6 μM (1:3), pH 4.4, 37° C., no inhibitor = 100%, read-out: % FF 1:3
[8] = TTR amyloid formation, 37° C., read-out: IC50
[9] = Table 3, WT-TTR 7.2 μM, read-out: IC50
[10] = pH 4.4; read-out: Dissociation Constant Kd2

SMILES	inhibition at 21.6 µM (TTR [1])	Kd (TTR [2]; [3])	disruption of preformed TTR fibers (TTR fibers)	IC50 (WT-TTR; [4])	remaining activity at 50 µM (WT-TTR; [5])	remaining activity at 7.2 µM (WT-TTR; [6])	remaining activity at 21.6 µM (WT-TTR; [7])	IC50 (WT-TTR; [8])	IC50 (WT-TTR; [9])	other results
N[C@H](Cc1cc(I)c(Oc2cc(I)c(O)c(I)c2)c(I)c1)C(=O)O (stereo in doubt) [Compound 13, thyroxine, reference compound]	75%	–	–	–	–	–	–	–	–	protein dissociates (tetramer dissociation) (TTR tetramer): 27%; % FF 1:1 (WT-TTR; TTR 7.2 μM, inhibitor 7.2 μM (1:1), pH 4.4, 37° C., no inhibitor = 100%): 48%; % FF 1:3 (WT-TTR; TTR 7.2 μM, inhibitor 21.6 μM (1:3), pH 4.4, 37° C., no inhibitor = 100%): 7%
Oc1cc(Cl)ccc1Oc1ccc(Cl)cc1Cl [Compound 1, Triclosan, reference compound]	62%	–	–	–	–	–	–	–	–	protein dissociates (tetramer dissociation) (TTR tetramer): 47%; remaining activity at 7.2 µM (WT-TTR; pH 4.4, read-out: % FF 1:1): 75%; remaining activity at 21.6 µM (WT-TTR; pH 4.4, read-out: % FF 1:3): 66%; remaining activity at 50 µM (WT-TTR): 41%; inhibition at 21.6 µM (WT-TTR; pH 4.4, read-out: inhibition of fibril formation): ~24%
O=Cc1ccc(Oc2ccc(Cl)cc2Cl)c(O)c1 [Compound 2]	> 80%	13.9 ± 5.01 nM	–	–	–	–	–	–	–	Kd (TTR [2]; read-out: Dissociation Constant Kd2; pH 4.4): 525 ± 60.1 nM
Oc1cc(CCl)ccc1Oc1ccc(Cl)cc1Cl [Compound 3]	> 80%	–	–	–	–	–	–	–	–	remaining activity at 7.2 µM (WT-TTR; pH 4.4, read-out: % FF 1:1): 5%; remaining activity at 21.6 µM (WT-TTR; pH 4.4, read-out: % FF 1:3): 0%; remaining activity at 50 µM (WT-TTR): 0%
COc1cc(CCl)ccc1Oc1ccc(Cl)cc1Cl [Compound 5]	> 80%	–	more effective	3160 ± 40 nM	0%	26%	0%	–	3160 nM	IC50 (WT-TTR): 470 to 3500 nM
Oc1ccccc1-c1nnc(S)o1 [Compound 11]	> 80%	42 ± 2.35 nM	–	3100 ± 50 nM	–	21%	0%	470 to 3500 nM	–	inhibition of TTR fibrillization (WT-TTR; TTR 7.2 μM): completely; Kd (TTR [2]; [10]): 72.6 ± 10.3 nM
O=C(Nc1nnc[nH]1)c1c(Cl)ccc(Cl)c1Cl [Compound 12]	> 80%	120 ± 32.1 nM	more effective	1060 ± 10 nM	–	11%	3.6%	470 to 3500 nM	–	inhibition of TTR fibrillization (WT-TTR; TTR 7.2 μM): completely
O=C1OC(/C=C/c2ccc(Cl)cc2Cl)=NC/1=C\c1cccs1 [Compound K088-1892]	–	–	–	–	–	–	–	–	–	remaining activity at 100 µM (WT-TTR; WT-TTR 7.2 μM, pH 4.4, 37° C.): 294%; inhibition at 100 µM (WT-TTR; WT-TTR 7.2 μM, pH 4.4, 37° C.): 0%
O=c1c2ccccc2nc2sc(Nc3ccc(F)cc3F)nn12 [Compound K284-2958]	–	–	–	–	–	–	–	–	–	remaining activity at 100 µM (WT-TTR; WT-TTR 7.2 μM, pH 4.4, 37° C.): -2.03%; inhibition at 100 µM (WT-TTR; WT-TTR 7.2 μM, pH 4.4, 37° C.): 102%

Now from value to compound, other results behind:

inhibition at 21.6 µM (TTR [1])	Kd (TTR [2]; [3])	disruption of preformed TTR fibers (TTR fibers)	IC50 (WT-TTR; [4])	remaining activity at 50 µM (WT-TTR; [5])	remaining activity at 7.2 µM (WT-TTR; [6])	remaining activity at 21.6 µM (WT-TTR; [7])	IC50 (WT-TTR; [8])	IC50 (WT-TTR; [9])	SMILES	other results
> 80%	0.3 ± 0.14 nM	more effective	1360 ± 50 nM	11.5%	12%	2.6%	470 to 3500 nM	1360 nM	OCc1ccc(Oc2ccc(Cl)cc2Cl)c(O)c1 [Compound 4]	Kd (TTR [2]; [10]): 13800 ± 1020 nM
> 80%	–	more effective	–	0%	10%	0%	–	–	COc1cc(C(=O)O)ccc1Oc1ccc(Cl)cc1Cl [Compound 6]	–
> 80%	27 ± 8.03 nM	–	2590 ± 140 nM	0%	29%	13.3%	470 to 3500 nM	2590 nM	O=C(O)c1ccc(Oc2ccc(Cl)cc2Cl)c(O)c1 [Compound 7]	protein dissociates (tetramer dissociation) (TTR tetramer): 21%; Kd (TTR [2]; [10]): 3 ± 0.78 nM
> 80%	–	–	1940 ± 90 nM	0%	25%	0%	470 to 3500 nM	1940 nM	COc1cc(CCl)ccc1Oc1ccccc1 [Compound 8, 3-Methoxy-4-phenoxybenzyl chloride]	–
> 80%	88 ± 10.1 nM	more effective	1310 ± 80 nM	0%	12%	0%	470 to 3500 nM	1310 nM	COc1cc(C=O)ccc1Oc1ccccc1 [Compound 9]	–

From patent US20100190832A1, “Mechanism-based inhibitors of transthyretin amyloidosis: studies with biphenyl ethers and structural templates” (NATIONAL INSTITUTE OF IMMUNOLOGY., priority 2008, published 2010)
